We go through three compounds from patent EP4166651A1, “METHODS AND COMPOSITION TO INCREASE CELLULAR GLUTATHIONE LEVEL” (priority 2021, dated 2023).

SMILES strings stand for the structures. Where a SMILES comes first, the peptide text is derived from it. Bridges are numbered along the chain shown (N, C = ends). Roman numbers before positions name the chains, in order.

The conditions of data set [1]: cell culture media relevant pH of about 7; cited from earlier work.
Data set [2] relates to human bone marrow stromal cells, mesenchymal stem cells (MSC).
Method: The assay was performed with human bone marrow stromal cells, mesenchymal stem cells (MSC). In a first step, the cells were seeded in a white 96-well cell culture plate and incubated for 24 h in a CO2-Incubator (37°C, 5% CO2, 95% humidity) at a cell density of 5.000 cells/well. After the resting time of 24 hours, diluted samples containing test compounds were added to the plate in equal volumes of 50 µl to reach the desired concentrations of interest and a final volume of 100 µl per well. Samples of L-cysteine were compared to Cys-peptides and each sample was tested in triplicates. The control was rested in medium without sample. […] The viability was determined based on the quantification of the ATP present in the cells per well. Through the luminescence detection of luciferase using a multiplate reader the ATP amount was measured and quantified. Resulting luminescence signal of samples was normalized to the signal of control cells. […] The viability was determined based on the quantification of the ATP present in the cells per well. Through the luminescence detection of luciferase using a multiplate reader the ATP amount was measured and quantified. Resulting luminescence signal of samples was normalized to the signal of control cells.
Data set [3] deals with Chinese hamster ovary cells (CHO-K1). Nature of the data set: In vitro Glutathione assay (GSH/GSSG-Glo) after H2O2-induced oxidative stress. In kind it is cell-based. The following applies: 24 h pre-incubation or constant incubation, 100 µM H2O2 for 20 min, with and without FBS, compared to medium control not treated with H2O2. How it is done: The addition of Cys-peptides and mixtures of Cys-peptides with L-cysteine and L-cystine to the cell culture medium was evaluated regarding their influence on the intracellular glutathione level. Oxidative stress was simulated by the addition of hydrogen peroxide solution. The assay was performed with Chinese hamster ovary cells (CHO-K1). […] In relation to the oxidative stress conditions the cells were pre-incubated or constantly incubated with Cys-peptide samples. […] The samples (Ala-Cys)2 and (Lys-Cys)2 were dissolved in culture medium, either containing 10% fetal bovine serum (FBS) or medium without FBS, to perform the assay setup in presence and absence of FBS during the stress phase. […] This leads to luminescence signals which were measured in a multiplate reader. To calculate the GSH concentrations, a dilution series of a glutathione standard was performed, and luminescence signals measured. Relative luminescence signals were plotted against GSH concentrations. After subtracting the background signals, GSH concentration in samples was calculated based on the linear standard curve. […] After luminescence signals were measured, the intracellular glutathione concentration of cells incubated with Cys-peptides and mixtures and treated with 100 µM H2O2 were compared to a medium control, which was not treated with H2O2.

Consider `N[C@@H](CSSC[C@H](N)C(=O)O)C(=O)O` [cystine, L-cystine], for which the solubility result in data set [1] was “around 1 mM”.

For the compound `N[C@@H](CS)C(=O)O` [L-Cysteine], in data set [2], the “viability of MSCs” value is listed as “negatively affects viability”. In data set [3], the intracellular glutathione level entry is given as “increase intracellular glutathione concentration”.

For `C[C@H](N)C(=O)N[C@@H](CSSC[C@H](NC(=O)[C@H](C)N)C(=O)O)C(=O)O` [(Ala-Cys)2, N,N'-di-L-alanyl-L-cystine] (I: H-Ala-Cys-OH / II: H-Ala-Cys-OH; disulfide I:2-II:2), in data set [2], the “viability of MSCs” value is given as “does not have a negative effect on the viability”.
